Test results: ChEMBL document CHEMBL6083254, “Optimization of B-Ring-Functionalized Antimalarial Tambjamines and Prodiginines” (J Med Chem, 2024)
pIC50: −log10 of the molar value. One block for each compound: values may come before it. Active and inactive are the calls of the source. The rule behind the calls is not given here.

Assays:
Plasmodium falciparum [1] = test: microbe, parasite or virus in culture; conditions: D6, 72 h
HepG2 = test: Cytotoxicity against human HepG2 cells assessed as cell viability incubated for 72 hrs by MTT assay; assay type: toxicity, cell-based; conditions: hepg2
Plasmodium falciparum [2] = test: microbe, parasite or virus in culture; conditions: Tm90-C2B, 72 h
in vitro = conditions: human
Description: Selectivity index, ratio of IC50 for cytotoxicity against human HepG2 cells assessed as cell viability to IC50 for antiplasmodial activity against asexual erythrocytic stage of Plasmodium falciparum D6 assessed as inhibition of parasitic growth incubated

Plasmodium falciparum [3] = test: microbe, parasite or virus in culture; conditions: Dd2, 72 h
Plasmodium yoelii [4] = test: Antiplasmodial activity against asexual erythrocytic stage of Plasmodium yoelii infected in female CFI mouse model assessed as reduction in parasitemia at 10 mg/kg, po administered once daily for 4 days and measured on day 5 by Giemsa staining based microscopic analysis relative to control; assay type: functional; design: scale not given: the % may be the effect or the level left; conditions: time 5 day
Plasmodium yoelii [5] = test: Antiplasmodial activity against asexual erythrocytic stage of Plasmodium yoelii infected in po dosed female CFI mouse model assessed as reduction in parasitemia administered once daily for 4 days and measured on day 5 by Giemsa staining based microscopic analysis; assay type: functional; conditions: 120 h, time 5 day
Plasmodium yoelii [6] = test: Antiplasmodial activity against asexual erythrocytic stage of Plasmodium yoelii infected in female CFI mouse model at 25 mg/kg, po administered once daily for 4 days and measured on day 5 by Giemsa staining based microscopic analysis; assay type: functional, organism-based; conditions: time 5.0 day
Plasmodium yoelii [7] = test: Antiplasmodial activity against asexual erythrocytic stage of Plasmodium yoelii infected in female CFI mouse model assessed as reduction in parasitemia at 1 mg/kg, po administered once daily for 4 days and measured on day 5 by Giemsa staining based microscopic analysis relative to control; assay type: functional; design: scale not given: the % may be the effect or the level left; conditions: time 5 day
[8] = Metabolic stability in human liver microsomes assessed as intrinsic clearance measured upto 60 mins LC-MS analysis
[9] = Metabolic stability in human liver microsomes assessed as half life measured upto 60 mins LC-MS analysis
Plasmodium yoelii [10] = test: Antiplasmodial activity against asexual erythrocytic stage of Plasmodium yoelii infected in female CFI mouse model assessed as reduction in parasitemia at 25 mg/kg, po administered once daily for 4 days and measured on day 5 by Giemsa staining based microscopic analysis relative to control; assay type: functional; design: scale not given: the % may be the effect or the level left; conditions: time 5 day
[11] = Metabolic stability in mouse liver microsomes assessed as intrinsic clearance measured upto 60 mins LC-MS analysis
[12] = Metabolic stability in mouse liver microsomes assessed as half life measured upto 60 mins LC-MS analysis
Plasmodium yoelii [13] = test: Antiplasmodial activity against asexual erythrocytic stage of Plasmodium yoelii infected in female CFI mouse model assessed as reduction in parasitemia at 3 mg/kg, po administered once daily for 4 days and measured on day 5 by Giemsa staining based microscopic analysis relative to control; assay type: functional; design: scale not given: the % may be the effect or the level left; conditions: time 5 day
[14] = Aqueous solubility of compound in PBS buffer at pH 7.4 incubated for 90 mins by UV-vis spectroscopic analysis; conditions: pH 7.4, 1.5 h
Plasmodium yoelii [15] = test: Antiplasmodial activity against asexual erythrocytic stage of Plasmodium yoelii infected in female CFI mouse model at 10 mg/kg, po administered once daily for 4 days and measured on day 5 by Giemsa staining based microscopic analysis; assay type: functional, organism-based; conditions: time 5.0 day
[16] = %AUCextra in ICR-CD1 mouse liver at 40 mg/kg, po; assay type: ADME, organism-based; conditions: in vivo
[17] = target: T1, Voltage-gated inwardly rectifying potassium channel KCNH2 (Homo sapiens, UniProt Q12809); test: Inhibition of hERG expressed in CHO-K1 cells at 1.25 uM relative to control; assay type: toxicity, cell-based; conditions: cho-k1, 1.25 µM
T1 sequence (Q12809 whole entry): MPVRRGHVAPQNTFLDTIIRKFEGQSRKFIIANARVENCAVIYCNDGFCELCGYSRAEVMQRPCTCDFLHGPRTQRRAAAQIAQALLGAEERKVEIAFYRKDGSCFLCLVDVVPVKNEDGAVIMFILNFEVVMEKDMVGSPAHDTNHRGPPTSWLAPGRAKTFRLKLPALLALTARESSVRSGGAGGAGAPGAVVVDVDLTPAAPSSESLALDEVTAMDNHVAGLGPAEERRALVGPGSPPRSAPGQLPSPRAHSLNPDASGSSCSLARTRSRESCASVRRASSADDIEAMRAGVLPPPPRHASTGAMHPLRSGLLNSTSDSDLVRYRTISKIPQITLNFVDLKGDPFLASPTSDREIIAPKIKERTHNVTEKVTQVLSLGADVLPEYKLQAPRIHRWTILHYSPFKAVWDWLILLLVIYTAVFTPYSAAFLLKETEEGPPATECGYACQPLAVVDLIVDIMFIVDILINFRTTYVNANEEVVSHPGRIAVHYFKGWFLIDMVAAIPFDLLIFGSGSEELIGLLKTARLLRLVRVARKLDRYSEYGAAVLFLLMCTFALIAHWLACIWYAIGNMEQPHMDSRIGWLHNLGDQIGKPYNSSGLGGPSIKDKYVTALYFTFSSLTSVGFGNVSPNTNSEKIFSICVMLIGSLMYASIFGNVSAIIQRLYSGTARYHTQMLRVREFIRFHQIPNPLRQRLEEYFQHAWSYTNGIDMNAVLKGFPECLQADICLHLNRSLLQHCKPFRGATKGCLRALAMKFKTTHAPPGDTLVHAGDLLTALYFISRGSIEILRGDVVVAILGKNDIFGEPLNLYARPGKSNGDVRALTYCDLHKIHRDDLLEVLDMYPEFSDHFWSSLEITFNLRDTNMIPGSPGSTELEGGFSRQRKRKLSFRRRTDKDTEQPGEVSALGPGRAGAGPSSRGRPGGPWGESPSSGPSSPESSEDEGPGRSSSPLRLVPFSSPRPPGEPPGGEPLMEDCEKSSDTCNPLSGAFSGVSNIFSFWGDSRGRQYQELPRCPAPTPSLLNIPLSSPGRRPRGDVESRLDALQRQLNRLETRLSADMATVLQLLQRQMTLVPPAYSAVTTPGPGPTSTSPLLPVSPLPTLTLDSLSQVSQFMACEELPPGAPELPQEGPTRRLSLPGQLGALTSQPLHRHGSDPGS

Plasmodium berghei [18] = test: Antimalarial activity against blood-stage Plasmodium berghei sporozoites ANKA expressing GFP infected in po dosed female Albino C57BL/6 mouse assessed as reduction in parasite load measured after 72 hrs by flow cytometry analysis; assay type: functional, organism-based; conditions: dose 20-40 mg/kg
[19] = Tmax in ICR-CD1 mouse liver at 40 mg/kg, po; assay type: ADME, organism-based
[20] = Tmax in ICR-CD1 mouse plasma at 40 mg/kg, po; assay type: ADME, organism-based
[21] = Half life in ICR-CD1 mouse liver at 40 mg/kg, po; assay type: ADME, organism-based
Plasmodium berghei [22] = test: Antimalarial activity against liver-stage Plasmodium berghei sporozoites ANKA expressing GFP infected in po dosed female Albino C57BL/6 mouse assessed as reduction in parasite load measured after 24 to 48 hrs by IVIS imaging analysis; assay type: functional, organism-based; conditions: dose 20-40 mg/kg, time 24-48 hrs
[23] = Apparent oral clearance in ICR-CD1 mouse liver at 40 mg/kg, po; assay type: ADME, organism-based
[24] = Mutagenicity in Salmonella typhimurium TA98 at 10 uM in absence of S9 fraction incubated for 5 days by AMES assay; assay type: toxicity; conditions: salmonella enterica subsp. enterica serovar typhimurium, s9, 120 h, time 5 day
[25] = AUClast in ICR-CD1 mouse plasma at 40 mg/kg, po; assay type: ADME, organism-based
[26] = %AUCextra in ICR-CD1 mouse plasma at 40 mg/kg, po; assay type: ADME, organism-based; conditions: in vivo
[27] = MRTlast in ICR-CD1 mouse liver at 40 mg/kg, po; assay type: ADME, organism-based
[28] = Half life in ICR-CD1 mouse plasma at 40 mg/kg, po; assay type: ADME, organism-based
[29] = Mutagenicity in Salmonella typhimurium TA100 at 10 uM in absence of S9 fraction incubated for 5 days by AMES assay; assay type: toxicity; conditions: salmonella enterica subsp. enterica serovar typhimurium, s9, 120 h, time 5 day
[30] = target: T1, Voltage-gated inwardly rectifying potassium channel KCNH2; test: Inhibition of hERG expressed in CHO-K1 cells at 5 uM relative to control; assay type: toxicity, cell-based; conditions: cho-k1, 5 µM
[31] = AUC (0 to infinity) in ICR-CD1 mouse plasma at 40 mg/kg, po; assay type: ADME, organism-based; conditions: in vivo
[32] = target: T1, Voltage-gated inwardly rectifying potassium channel KCNH2; test: Inhibition of hERG expressed in CHO-K1 cells at 0.313 uM relative to control; assay type: toxicity, cell-based; conditions: cho-k1, 0.313 µM
[33] = Mutagenicity in Salmonella typhimurium TA98 at 10 uM in presence of S9 fraction incubated for 5 days by AMES assay; assay type: toxicity, subcellular; conditions: salmonella enterica subsp. enterica serovar typhimurium, s9, 120 h, time 5 day
[34] = Apparent oral clearance in ICR-CD1 mouse plasma at 40 mg/kg, po; assay type: ADME, organism-based; conditions: in vivo
[35] = target: T1, Voltage-gated inwardly rectifying potassium channel KCNH2; test: Inhibition of hERG expressed in CHO-K1 cells at 2.5 uM relative to control; assay type: toxicity, cell-based; conditions: cho-k1, 2.5 µM
[36] = Cmax in ICR-CD1 mouse liver at 40 mg/kg, po; assay type: ADME, organism-based
[37] = target: T1, Voltage-gated inwardly rectifying potassium channel KCNH2; test: Inhibition of hERG expressed in CHO-K1 cells at 10 uM relative to control; assay type: toxicity, cell-based; conditions: cho-k1, 10 µM
Plasmodium berghei [38] = test: Antimalarial activity against liver-stage Plasmodium berghei sporozoites ANKA expressing GFP infected female Albino C57BL/6 mouse assessed as reduction in parasite growth at 40 mg/kg, po measured at 72 hrs by IVIS imaging analysis; assay type: functional; design: scale not given: the % may be the effect or the level left
[39] = Cmax in ICR-CD1 mouse plasma at 40 mg/kg, po; assay type: ADME, organism-based
Plasmodium berghei [40] = test: Antimalarial activity against liver-stage Plasmodium berghei sporozoites ANKA expressing GFP infected female Albino C57BL/6 mouse assessed as reduction in parasite growth at 40 mg/kg, po measured at 48 hrs by IVIS imaging analysis; assay type: functional; design: scale not given: the % may be the effect or the level left
[41] = MRTlast in ICR-CD1 mouse plasma at 40 mg/kg, po; assay type: ADME, organism-based
[42] = AUClast in ICR-CD1 mouse liver at 40 mg/kg, po; assay type: ADME, organism-based
[43] = target: T1, Voltage-gated inwardly rectifying potassium channel KCNH2; test: Inhibition of hERG expressed in CHO-K1 cells at 0.625 uM relative to control; assay type: toxicity, cell-based; conditions: cho-k1, 0.625 µM
[44] = AUC (0 to infinity) in ICR-CD1 mouse liver at 40 mg/kg, po; assay type: ADME, organism-based
[45] = Mutagenicity in Salmonella typhimurium TA100 at 10 uM in presence of S9 fraction incubated for 5 days by AMES assay; assay type: toxicity, subcellular; conditions: salmonella enterica subsp. enterica serovar typhimurium, s9, 120 h, time 5 day
[46] = Plasmodium yoelii, po, read-out: ED50

pIC50 (Plasmodium falciparum [1]): 8.10 | pIC50 (Plasmodium falciparum [2]): 8.00 | pIC50 (Plasmodium falciparum [3]): 8.15
SMILES: CCCCCc1cc(/C=C2\N=C(c3ccc[nH]3)C=C2Oc2ccc(Cl)cc2)[nH]c1C.Cl
pIC50 (HepG2): 5.02 | selectivity ratio (in vitro): 1210 | Activity (Plasmodium yoelii [4]): 100% | ED50 (Plasmodium yoelii [5]; [46]): 1.15 mg/kg/day | ED50 (Plasmodium yoelii [5]): 1.25 mg/kg/day | Activity (Plasmodium yoelii [6]): Active | Activity (Plasmodium yoelii [7]): 5.01%

pIC50 (Plasmodium falciparum [1]): 8.06 | microsomal CLint at 1 h [8]: 23.3 µL/min/mg | half-life at 1 h [9]: 0.99 h | pIC50 (Plasmodium falciparum [2]): 8.02 | microsomal CLint at 1 h [11]: 36.4 µL/min/mg | half-life at 1 h [12]: 0.633 h | solubility [14]: < 3.125 µM | pIC50 (Plasmodium falciparum [3]): 8.13
SMILES: CCCCCc1cc(/C=C2\N=C(c3ccc[nH]3)C=C2Oc2ccc(OC(F)(F)F)cc2)[nH]c1C.Cl
pIC50 (HepG2): 4.78 | Activity (Plasmodium yoelii [10]): 100% | selectivity ratio (in vitro): 1910 | Activity (Plasmodium yoelii [13]): 92% | Activity (Plasmodium yoelii [4]): 100% | ED50 (Plasmodium yoelii [5]; [46]): 1.01 mg/kg/day | Activity (Plasmodium yoelii [15]): inactive | Activity (Plasmodium yoelii [6]): Active | Activity (Plasmodium yoelii [7]): 49.1%

SMILES: CCCCCc1cc(/C=C2\N=C(c3ccc[nH]3)C=C2Oc2ccccc2)[nH]c1C.Cl
pIC50 (Plasmodium falciparum [1]): 8.15 | microsomal CLint at 1 h [8]: 4.02 µL/min/mg | %AUCextra [16]: 0.267% | inhibition (INH) [17]: 9.85% | Activity (Plasmodium berghei [18]): Dose-dependent-effect | Tmax [19]: 24 h | pIC50 (HepG2): 5.20 | half-life at 1 h [9]: > 1 h | Tmax [20]: 30 h | half-life [21]: 5.03 h | Activity (Plasmodium berghei [22]): Dose-dependent-effect | pIC50 (Plasmodium falciparum [2]): 8.06 | CL/F [23]: 0.615 mL/min/kg | Activity [24]: Non-toxic | AUC(0-t) [25]: 5950 ng·h/mL | selectivity ratio (in vitro): 884 | %AUCextra [26]: 0.426% | MRT last [27]: 29.1 h | half-life [28]: 6.41 h | microsomal CLint at 1 h [11]: 25.2 µL/min/mg | half-life at 1 h [12]: 0.915 h | Activity [29]: Non-toxic | inhibition (INH) [30]: 10.3% | AUC [31]: 5974 ng·h/mL | inhibition (INH) [32]: 0.24% | Activity [33]: Non-toxic | CL/F [34]: 3.32 mL/min/kg | solubility [14]: < 3.125 µM | inhibition (INH) [35]: 10.3% | pIC50 (Plasmodium falciparum [3]): 8.41 | Activity (Plasmodium yoelii [4]): 100% | Cmax [36]: 1130 ng/mL | inhibition (INH) [37]: 17.5% | Activity (Plasmodium berghei [38]): 74% | Cmax [39]: 199 ng/mL | Activity (Plasmodium berghei [40]): 43% | ED50 (Plasmodium yoelii [5]; [46]): 0.99 mg/kg/day | ED50 (Plasmodium yoelii [5]): 1.11 mg/kg/day | MRT last [41]: 28.3 h | AUC(0-t) [42]: 31900 ng·h/mL | Activity (Plasmodium yoelii [6]): Active | inhibition (INH) [43]: 7.31% | AUC(0-inf) [44]: 32000 ng·h/mL | Activity (Plasmodium yoelii [7]): 54.6% | Activity [45]: Non-toxic

SMILES: CCCCCc1cc(/C=C2\N=C(c3ccc[nH]3)C=C2OC(C)C)[nH]c1C.Cl
pIC50 (Plasmodium falciparum [1]): 8.96 | pIC50 (HepG2): 5.46 | pIC50 (Plasmodium falciparum [2]): 8.81 | Activity (Plasmodium yoelii [10]): 100% | selectivity ratio (in vitro): 3190 | Activity (Plasmodium yoelii [13]): 71.8% | pIC50 (Plasmodium falciparum [3]): 9.57 | Activity (Plasmodium yoelii [4]): 100% | ED50 (Plasmodium yoelii [5]; [46]): 2.25 mg/kg/day | ED50 (Plasmodium yoelii [5]): 4.42 mg/kg/day | Activity (Plasmodium yoelii [15]): inactive | Activity (Plasmodium yoelii [6]): Active | Activity (Plasmodium yoelii [7]): 4.2%

SMILES: CCCCCc1cc(/C=C2\N=C(c3ccc[nH]3)C=C2OCC)[nH]c1C.Cl
pIC50 (Plasmodium falciparum [1]): 8.61 | pIC50 (HepG2): 5.43 | pIC50 (Plasmodium falciparum [2]): 8.14 | Activity (Plasmodium yoelii [10]): 100% | selectivity ratio (in vitro): 1500 | Activity (Plasmodium yoelii [13]): 46.6% | pIC50 (Plasmodium falciparum [3]): 8.88 | Activity (Plasmodium yoelii [4]): 100% | ED50 (Plasmodium yoelii [5]; [46]): 3.12 mg/kg/day | ED50 (Plasmodium yoelii [5]): 5.61 mg/kg/day | Activity (Plasmodium yoelii [15]): inactive | Activity (Plasmodium yoelii [7]): 2.1%
